pIC50: −log10 of the molar value.
Target: T1, Jak1 (Homo sapiens, UniProt P23458)
T1 construct: using a recombinant purified GST-tagged catalytic domain for each enzyme; GST; purchased Invitrogen M4290
Assay: Jak Biochemical HTRF Assay (Jak1)
Conditions: IC50 class, recombinant GST-tagged catalytic domain, read-out: Jak1 activity
How it was run: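 Recombinant GST-tagged Jak1 catalytic domain was preincubated with compound and peptide substrate for 30 min at room temperature, and the reaction was then started with ATP and run 120 min. Buffer contained 2 mM DTT and 0.05% BSA. Read-out was HTRF (665/615 nm) with Eu-pY20 antibody and streptavidin-Dylight, and IC50 values came from 4-parameter fits of percent inhibition.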

T1 sequence (P23458 875-1153 limits assumed): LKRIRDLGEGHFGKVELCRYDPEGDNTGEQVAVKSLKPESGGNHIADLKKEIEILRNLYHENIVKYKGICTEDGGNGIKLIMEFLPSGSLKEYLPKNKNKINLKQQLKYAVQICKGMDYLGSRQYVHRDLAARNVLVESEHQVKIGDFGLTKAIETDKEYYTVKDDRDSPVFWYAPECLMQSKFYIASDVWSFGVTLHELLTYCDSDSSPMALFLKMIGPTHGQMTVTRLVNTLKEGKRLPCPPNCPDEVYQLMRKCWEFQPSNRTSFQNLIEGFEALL

Work on `COC(=O)c1ccc(CCOC(=O)N2CCC[C@@H]3[C@H]2CCN3c2ncnc3[nH]ccc23)cc1` [Example 3-21, 2-[4-(methoxycarbonyl)phenyl]ethyl (3aR,7aR)-1-(7H-pyrrolo[2,3-d]pyrimidin-4-yl)octahydro-4H-pyrrolo[3,2-b]pyridine-4-carboxylate] yielded a pIC50 of 7.00 to 8.00.

For `Cc1cc(C(=O)N2CCC[C@@H]3[C@H]2CCN3c2ncnc3[nH]ccc23)no1` [Example 29-14, 4-{(3aR,7aR)-4[(5-methylisoxazol-3-yl)carbonyl]octahydro-1H-pyrrolo[3,2-b]pyridin-1-yl}-7H-pyrrolo[2,3-d]pyrimidine], the pIC50 was 6.00 to 7.00.

`O=C(OCc1cccnc1)N1CCC[C@@H]2[C@H]1CCN2c1ncnc2[nH]ccc12` [Example 3-19, pyridin-3-ylmethyl (3aR,7aR)-1-(7H-pyrrolo[2,3-d]pyrimidin-4-yl)octahydro-4H-pyrrolo[3,2-b]pyridine-4-carboxylate] was tested, and the pIC50 was 6.00 to 7.00.

Compound `O=C(OCCc1ccccn1)N1CCC[C@@H]2[C@H]1CCN2c1ncnc2[nH]ccc12` [Example 3-37, 2-pyridin-2-ylethyl (3aR,7 aR)-1-(7H-pyrrolo[2,3-d]pyrimidin-4-yl)octahydro-4H-pyrrolo[3,2-b]pyridine-4-carboxylate] has a pIC50 of 7.00 to 8.00.

With `CC1CCN(C(=O)CC#N)C2CCN(c3ncnc4[nH]ccc34)C12` [Example 22, (3aS,7S,7aS and 3aR,7R,7aR) 3-[7-methyl-1-(7H-pyrrolo[2,3-d]pyrimidin-4-yl)octahydro-4H-pyrrolo[3,2-b]pyridin-4-yl]-3-oxopropanenitrile] the pIC50 was 6.00 to 7.00.

`O=C1CCCN1CCOC(=O)N1CCC[C@@H]2[C@H]1CCN2c1ncnc2[nH]ccc12` [Example 3-36, 2-(2-oxopyrrolidin-1-yl)ethyl (3aR,7aR)-1-(7H-pyrrolo[2,3-d]pyrimidin-4-yl)octahydro-4H-pyrrolo[3,2-b]pyridine-4-carboxylate] showed a pIC50 of 6.00 to 7.00.

— patent US8937077B2, “Bicyclic diamines as janus kinase inhibitors” (Merck Sharp & Dohme Corp., priority 2010, dated 2015)
